Measurements published in US5298502A, “Method and composition for photodynamic treatment and detection of tumors” (priority 1991, dated 1994).
Entries after “also recorded” stand apart in the source; their conditions may differ.

Experiments:
[1] = system: dark-bleached Chlamydomonas reinhardi mutant y-1; experiment: Light-Induced Greening Inhibition Test; format: cell-based; details: compounds ionized in water, operative ion negatively charged
Protocol: Another test of the capacity of a material for disrupting the plasmalemma of plant material is the Light-Induced Greening Inhibition Test described more particularly in Appendix B below.
Stock Cultures of y-1 cells are maintained axenically in liquid culture on Medium A or M, preferably on Medium M, in a 14/10 hour light/dark cycle at 25° C. in Erlenmeyer flasks which are stoppered with polyurethane plugs. The stock cultures are incubated without supplemental aeration on rotary shakers at 125 rpm. The light intensity at the culture level is 120 μE m^-2 sec^-1 (PAR). Under these conditions the cultures are in a semi-synchronous mode of growth until they reach a stationary phase of 2-4×10^6 cells/mL.
Cells from the stationary phase of stock cultures grown in the presence of light (7.5 mL) are transferred to 750 mL of Medium A in an Erlenmeyer flask. […]
An aqueous, 10% sodium dodecyl sulfate solution (250 μL) and methanol (1 mL) is added to each test well and is mixed thoroughly. […] The supernatants are removed and analyzed in a Beckman Model 35 spectrophotometer between 350 nm and 500 nm for the presence of protophorphrin IX, at 668 nm which is the absorption peak of chlorophyll in this solvent system, and at 720 nm to use as a turbidity background reading.
For each well a greenness value is obtained by subtracting the 720 nm reading from the 668 nm reading. […]

chondrosarcoma = experiment: Photodynamic treatment of chondrosarcoma in rats fed the agent (Example 9); format: in vivo, Sprague-Dawley rats
Protocol: Specifically, three Sprague-Dawley rats of average weight 120 g were placed on a diet of feed containing 2000 ppm of the agent for a period of 6 days. On day 3, chondrosarcoma was implanted into the right hind limb of each rat by injecting 0.3 mL of a suspension of the tumor cells (about one million tumor cells). On day 6 the right hind limb of each rat was shaven and depilated, the size of each tumor was measured, and the tumor area and surrounding skin were then exposed to non-thermal doses of 630 nm light for a total of 270 J/cm^2.
In another set of experiments, 20 of the rats were placed on the same diet as above (i.e. feed containing 2000 ppm of agent), provided ad libitum, for 10 days before the treatment with the light, and the injection of the tumor cell suspension was made after the animals had been on the diet for 7 days. Such an injection causes the formation of a tumor having a well defined vascular network within 1 to 2 days. At the time of the treatment with light the tumors had diameters of 5-8 mm and were free of evident necrosis.

male Fisher 344 rat = experiment: Proto IX levels in tissues of rat fed agent for 27 days; format: in vivo; details: feed containing 5000 ppm for 27 days
From the text: In another test, a male Fisher 344 rat was fed for 27 days with feed containing 5000 ppm of agent 6c and then sacrificed.
In the foregoing tests of rats and mice the animals were kept on a standard 12 hr. dark-12 hr. light cycle.

[2] = Tolerance of intraperitoneal injection in mice; details: mouse, in vivo, ip, 60% corn oil and 40% DMSO, read-out: tolerated dose
Protocol: c. In tests of the agent injected intraperitoneally in a mixture of 60% corn oil and 40% DMSO it was determined that the mice could tolerate a dose of 100 mg/kg.

[3] = 20 rats, 2000 ppm in feed for 10 days

## Cc1nn(-c2cc(NS(C)(=O)=O)c(Cl)cc2Cl)c(=O)n1C(F)F [Agent 6c]
[1]
  response in light-greening inhibition test: do not respond well in this test
chondrosarcoma; [3]
  tumors that regrew over time: ~95%
  tumors with visible regression on the day following the light treatment: 75%
chondrosarcoma; 2000 ppm in feed for 6 days, 630 nm light 270 J/cm^2
  effect on surrounding skin and muscle tissue: slightly blanched and showed some swelling
chondrosarcoma; sodium fluoroscin injection immediately after exposure to light
  occlusion of blood flow to the treatment area: did not cause apparent occlusion of blood flow
chondrosarcoma; three rats, 2000 ppm in feed for 6 days, 630 nm light 270 J/cm^2
  tumor regression on the day after light treatment: two of the rats were found to be apparently free of their tumors; also recorded: the third rat showed almost complete regression of its tumor
Male Fisher 344 rat
  Proto IX level in muscle tissue: only a small increase
  Proto IX levels in kidney, intestine, stomach and brain: marked increases
  Proto IX levels in tissues as compared to a control: increased levels of Proto IX as compared to a control
[2]
  MTD: 100 mg/kg
